Experimental data from patent US10857180B2, “Pharmaceutical composition for improving health, cure abnormalities and degenerative disease, achieve anti-aging effect of therapy and therapeutic effect on mammals and method thereof” (priority 2014, dated 2020).
≈ marks a conversion by molar mass, not a printed value. Read-outs that look alike come from different tables or passages of the source.

How the values were obtained:
[1] = tested on: renal cell carcinoma (PA) cells; test: Viability of PA tumor cells (trypan blue, crystal violet; live-dead); format: cell-based, rat; details: for IC50: Rattus norvegicus; for dose for 50% live, 50% dead: natural isotope distribution
Description: To make the analysis, the cell suspension, after it was exposed to the action of materials, in a volume of 20 mcl was mixed with 20 mcl of trypan blue solution and resuspended. The obtained solution was placed in a hemocytometer chamber for visual analysis and quantitative estimation of the cells. To make the quantitative estimation of the cells, they were separated from the substrate using Versene solution and counted by staining cells with trypan. A change in the color of a cell was indicative of the violation of intactness of the cell membrane, and the more pronounced was the coloration, the less viable the cell was. […] They are easily distinguishable from dark damaged cells and easily identified with ordinary light microscope.
Alluding to the above, staining the Cells with Crystal Violet and their Quantitative Analysis will be discussed. Utilization of this method of assessment in the experiment makes it possible to quantify cells classified according to the living-dead criterion. The method is based on statistical evaluation of cells able to adhere to the substrate (to the plastic plate), cells capable of further proliferation. The criterion of the evaluation is the degree of optical permeability of a well with the cell sediment for a luminous flux of a certain wavelength. Removal of the culture medium from the wells is also accompanied by removal of non-adhering and unstained cells from the substrate, and adhesion and staining of the residue left on the substrate provides a quantitative characteristic of the number of cells which are capable of further division and multiplication.
Alluding to the above, viable tumor cells capable of further proliferation were fixed to the plastic surface and stained blue (after they were exposed to the action of components with natural distribution of isotopes) using the dye powder dissolved in 70% methanol solution. After 10 minutes the dye was removed from the wells with a micropipette and the cells were thoroughly rinsed three times with clean running water. The cell sediment fixed by the dye was dissolved with ethanol followed by determination of its concentration (which is indicative of the number of viable cells) and fixed via multi-well spectrophotometer with an excitation wave 540 nm in length.
Analysis of the effect of all components on the renal cell carcinoma (PA) was conducted to determine the relationship between the amount of the preparation (concentration characteristics of the component) and the quantitative characteristics of the cells. Assessment of the effect of the components was carried out on 2 concentration models with 30 and 300 thousand original tumor cells. After the cells were cultured, cell suspensions were prepared in the plates with the culture medium and an effect of the preparations (in various concentrations) on the tumor cells was assessed. The experiment was started with the concentration of 10 mg of the active substance per 1 ml of the solvent (saline with 5% glucose).
After the action of components with natural isotope distribution on PA tumor cells (in all 9 concentration dilutions of the preparations), they were stained with trypan blue. Staining cells (after the effect of the components) in blue is indicative of the respiratory impairment of the cells, which allows of classifying them as non-viable tumor units. The part of the cells remained uncolored is characterized as viable with the ability for further proliferation. […] The assessment was performed on 14 plates with 300 thousand cells in each well by counting the number of viable cells in the Goryaev chamber. Quantitative analysis of the cells was performed visually every 10 hours of the experiment.

[2] = tested on: healthy human skin cells (HaCaT cell line); test: Scratch assay, HaCaT cells; format: cell-based; details: Doxorubicin 15 ng/ml and 5 ng/ml
Description: (§2) The cells of A-549, A-431, NRK, HaCaT, MM-4, normal fibroblasts (derived from the Bank of Cell Lines from human and animal tissues, R. E. Kavetsky Institute of Experimental Pathology, Oncology and Radiobiology, National Academy of Sciences of Ukraine) were cultured in complete culture medium RPMI 1640/DMEM (PAA, Austria) (depending on the cell type) supplemented with 10% fetal calf serum (PAA, Austria) and incubated in 5% CO2 humidified atmosphere at 37° C. The culture medium was replaced in 2 to 3 days and the cells were passaged in 4 to 5 days.
(§3) Analysis of the influence of the components under study on the cell migration rate was performed using the scratch assay method. […]
(§4) The plate was incubated in a CO2 incubator for additional 48 hours. After the cells formed a dense monolayer it was damaged (by making a “scratch”) and the growth medium was replaced to remove cell debris and smooth the edges of the “scratch.” The rate of cell migration was analyzed using an inverted microscope and by photographing cells in the area of injury. The migration activity of cells was fixed at several time points (depending on the cell line analyzed). The microphotomicrographs were analyzed and the cell incubation time needed to restore the monolayer was determined for all experimental groups. […]

A-549 cell line = test: Scratch assay, A-549 cells
Description: as §2
(§5) Analysis of the influence of the components under study on the cell migration rate was performed using the scratch assay method. Cells (5×10^4/well) were seeded into the wells of a 12-well plate in 2 repeats in RPMI-1640/DMEM culture medium supplemented with 10% PBS, 40 mcg/ml of gentamicin and incubated in 5% CO2 humidified atmosphere at 37° C. for 24 hours.
(§6) The plate was incubated in a CO2 incubator for additional 48 hours. After the cells formed a dense monolayer it was damaged (by making a “scratch”) and the growth medium was replaced to remove cell debris and smooth the edges of the “scratch.” The rate of cell migration was analyzed using an inverted microscope and by photographing cells in the area of injury. The migration activity of cells was fixed at several time points (depending on the cell line analyzed). The microphotomicrographs were analyzed and the cell incubation time needed to restore the monolayer was determined for all experimental groups.

[3] = tested on: stem cells derived from rat fibroblasts (RF); format: cell-based
[4] = tested on: human melanoma tumor cells (MM-4 cell line); test: Scratch assay, MM-4 cells; format: cell-based; details: Doxorubicin at 2 concentrations (0.1 and 0.01 mcg/ml)
Description: as §2, §3, §4

[5] = tested on: normal rat kidney cells (NRK cell line); test: Scratch assay, NRK cells; format: cell-based; details: Doxorubicin 15 ng/ml; control 30 hours
Description: as §2, §5, §6

[6] = tested on: human epidermoid carcinoma cells (A-431 cell line); test: Scratch assay, A-431 cells
Description: as §2, §3, §4

[7] = tested on: normal rat kidney cells (NRK cell line); test: Effect on normal rat kidney cells versus Doxorubicin; details: for live cells: 16 mcg/ml
Description: An immortalized cell line is a stable, capable of unlimited proliferation cell line that consists of cells with […] in culture.

[8] = tested on: renal cell carcinoma (PA) cells; test: Immunocytochemistry (H-Score) of PA cells; format: cell-based, rat
Description: When making the immunocytochemistry (ICC) assay, cells on microscope glasses (cytospin preparations) were fixed in the solution (methanol+acetone 1:1) for 2 hours at t 20° C. and incubated with 1% solution of bovine serum albumin (BSA) for 20 minutes. Then the monoclonal antibodies—CD44 (Diagnostic BioSystems), E-cadherin (ThermoScientific), N-cadherin (NeoMarker, BioLegend)—were applied for 60 minutes, after which the Poly Vue imaging system conjugated with peroxidase was used and the enzyme activity was detected using diaminobenzidine (ThermoScientific) as a substrate.
(§1) After the immunocytochemical reaction the preparations were washed with water and counterstained with hematoxylin-eosin (for 15-30 seconds). The results were analyzed by counting cells with expression (brown colored cells), using a light microscope and were assessed using the classical H-Score method: S=1×A+2×B+3×C, where S is the H-Score index giving a range of 0 (protein is not detected) to 300 (high-level expression in 100% of the cells); A is the percentage of weakly stained cells, B is the percentage of moderately stained cells and C is the percentage of strongly stained cells.

[9] = tested on: normal rat kidney cells (NRK line); test: Immunocytochemistry of NRK cells; format: cell-based
Description: When making the immunocytochemistry (ICC) assay, cells on microscope glasses (cytospin preparations) were fixed in the solution (methanol+acetone 1:1) for 2 hours at t 20° C. and incubated with 1% solution of bovine serum albumin (BSA) for 20 minutes. Then the monoclonal antibodies-CD44 (Diagnostic BioSystems), E-cadherin (ThermoScientific), N-cadherin (NeoMarker, BioLegend), SLUG (GeneTex)—were applied for the time period specified by the manufacturer (30 to 60 minutes), after which the Poly Vue imaging system conjugated with peroxidase was used and the enzyme activity was detected using diaminobenzidine (ThermoScientific) as a substrate. After the immunocytochemical reaction the preparations were washed with water and counterstained with hematoxylin-eosin (for 15 to 30 seconds).
as §1, with “The” for “After the immunocytochemical reaction the preparations were washed with water and counterstained with hematoxylin-eosin (for 15-30 seconds). The”, “cells)” for “cells),”, “microscope,” for “microscope”, “staining” for “stained”

[10] = Zn sulfate 80 mcg/ml, trypan blue

For `COc1cccc2c1C(=O)c1c(O)c3c(c(O)c1C2=O)C[C@@](O)(C(=O)CO)C[C@@H]3O[C@H]1C[C@H](N)[C@H](O)[C@H](C)O1` [Doxorubicin], the dead cells ([1]; Doxorubicin 0.64 mcg/ml) was 39%, the live cells ([1]; Doxorubicin 0.64 mcg/ml) was 61% and the dead cells ([1]; Doxorubicin 16 mcg/ml) was 95%. For the same compound, the live cells ([1]; Doxorubicin 16 mcg/ml) was 5%, the IC50 ([1]; crystal violet and trypan blue, read-out: concentration that kills 50% of the tumor cells) was 3.2 µg/mL (≈ 5.89 µM) and the IC50 ([1]; read-out: dose that killed 50% of tumor cells) was 3.2 µg/mL (≈ 5.89 µM). For the same compound, the cell migration rate [2] was “inhibition of the cell migration rate”, the “time of restoration of the cell monolayer” value (A-549 cell line; Doxorubicin 0.02 mcg/ml) was 60 h and the “time of restoration of the cell monolayer” value (A-549 cell line; Doxorubicin 0.2 mcg/ml) was under 24 h. The “time of full restoration of the cell monolayer” value (A-549 cell line; Doxorubicin (2 mcg/ml per FIG. 113-116)) was 24 h, the “time of restoration of the cell interval” value ([3]; Doxorubicin 15 ng/ml or 5 ng/ml) was over 72 h and the death of cells ([3]; Doxorubicin 15 ng/ml, within 96 hours after administration) was 95%. For the same compound, the “period of closing of the gap” value [4] was 48 h, the “time of restoration of the damaged monolayer” value [5] was 72 h and the “time for the cell monolayer repair” value ([6]; Doxorubicin 0.02 mg/ml) was 48 h. The “time to close up the cellular gap” value ([6]; Doxorubicin 0.1 mcg/ml, control 48 hours) was 45 h, the “effect on normal NRK cells” value ([7]; 3 to 0.01 mcg/ml) was “causing death of normal NRK cells” and the live cells ([7]; within 30 min) was “live cells are virtually absent”. For the same compound, the live cells ([7]; within 48 hours) was “live cells are absent” and the “effect on normal NRK cells” value ([7]; 400 to 16 mcg/ml, 48 hours) was “complete death”.
In the case of `[Cl-].[K+]` [K], the “dose for 50% live, 50% dead” value [1] was “about 2 mg”.
With `O=S(=O)([O-])[O-].[Mg+2]` [Mg] the “dose for 50% kill, times as high as Doxorubicin EBEWE” value [1] was 1600 times and the “dose for 50% live, 50% dead” value [1] was “about 5 mg”.
`O=S(=O)([O-])[O-].[Zn+2]` [Zn] was tested, and the “dose for 50% kill, times as high as Doxorubicin EBEWE” value [1] was 100 times, the dead tumor cells ([1]; Zn sulfate 16 mcg/ml) was 7% and the live tumor cells ([1]; Zn sulfate 16 mcg/ml) was 93%. For the same compound, the dead tumor cells [1, 10] was 75% and the live tumor cells [1, 10] was 25%.
With `O=S(=O)([O-])[O-].[64Zn+2]` [^64Zn—Z2] the “CD44 marker positive cells, H-Score scale” value ([8]; 3.2 mcg/ml) was 118 units, the N-cadherin level ([8]; ^64Zn—Z2 3.2 and 0.128 mcg/ml) was “does not change” and the “number of E-cadherin-positive cells” value ([8]; ^64Zn—Z2 3.2 and 0.128 mcg/ml) was “grows”. For the same compound, the “E-cadherin-positive cells, H-Score scale” value ([8]; dose D1 0.128 mcg/ml) was 300 and the “phenotype of normal cells” value [9] was “has not changed”.
